Test results from US6638948B1, “Amorphous paroxetine composition” (Pentech Pharmaceuticals, Inc., priority 1996, dated 2003).

How the values were obtained:
[1] = Stability testing: specimen stored in a glass container with HDPE liner, opened and closed periodically, exposing it to atmospheric moisture; moisture and appearance noted; assay type: physicochemical
Description: To a reaction flask containing 100 ml of absolute ethanol was added 13.9 g of paroxetine base. The flask was shaken until a clear solution was obtained. To this paroxetine solution, 10 ml of a solution of hydrochloric acid in absolute ethanol (22% v/v) was added dropwise. As the reaction proceeded to completion, the color of the solution changed from a yellow brown to a pink brown. The product was then vacuum dried in a rotary evaporator. A foamy, amorphous solid was obtained (lot # W951027). The produced amorphous solid was subjected to an additional 2.5 days of drying in a desiccator at reduced pressure. The solid, a free-flowing powder, was tested for composition by NMR and FTIR. The findings were consistent with published spectra for paroxetine. Silver nitrate testing of the solid indicated the presence of chloride in the sample. […] Residual moisture was determined by Karl-Fisher coulometric method at 0.7%. […] X-ray powder diffraction was performed using the powder pack method. The powder patterns were obtained using a Philips PW1710 automated diffractometer, with monochromatized CuKα, (Kα1=1.54060 Å; Kα2=1.54438 Å) radiation. The diffractometer was equipped with a compensating slit and a graphite monochromator. It was calibrated to 0.02° (2θ) using the quartz peak at 26.66θ° (2θ). The minimum peak/background ratio was 0.75. This spectrum is consistent with an amorphous solid form. The halo effect is clearly seen and the intensity is small. Differential scanning calorimetry was performed on the solid at two different heating rates.
A specimen (0.5 g) was stored in a glass container with a HDPE liner for stability testing. The container was opened and closed periodically exposing the specimen to atmospheric moisture. Moisture determination was conducted at intervals of about 3 months.
A solution of paroxetine hydrochloride in absolute ethanol (3.2 g/100 ml) was prepared as described in EXAMPLE 1. The solution was charged into a spray-drying machine (Yamato Chemical Co.) using a standard nozzle (0.1 mm orifice). The inlet temperature was set at 90 degrees Celsius and the outlet temperature at 60 degrees Celsius. The sample was spray dried to a fine, off-white powder (lot # W951026). Following recovery, the material was transferred to a vacuum desiccator and dried under partial vacuum for an additional 2.5 days. The resulting solid, a free-flowing powder, was tested for composition by NMR and FTIR. The findings were consistent with published spectra for paroxetine. Silver nitrate solution addition to an aqueous solution of the powder produced a white precipitate indicative of chloride. […] Residual moisture in the product was 0.8% measured by Karl-Fisher coulometric method. A sample was analyzed by HPLC and found to be free from related substances (purity>99%). This spectrum is consistent with an amorphous form. Differential scanning calorimetry was conducted on the solid.
For stability testing a specimen (9 g) was stored in a glass container with a HDPE liner. The container was opened and closed periodically exposing the specimen to atmospheric moisture. Moisture determination was conducted at intervals of about 3 months.

[2] = reported by Barnes et al. (U.S. Pat. No. 4,721,723); cited from earlier work
[3] = 3 months storage, periodic exposure to atmospheric moisture
[4] = 6 months storage, periodic exposure to atmospheric moisture
[5] = Initial, Karl-Fisher coulometric method

SMILES | APPEARANCE [1, 3] | MOISTURE [1, 3] | APPEARANCE [1, 4] | MOISTURE [1, 4] | APPEARANCE ([1]; Initial) | MOISTURE [1, 5] | hygroscopicity [2]
Cl.Fc1ccc([C@@H]2CCNC[C@H]2COc2ccc3c(c2)OCO3)cc1 [lot #W951027, (−)-trans4R-(4′-fluorophenyl)-3S-[(3′4′-methylenedioxy-phenoxy)methyl]-piperidine] | Free-flowing | 1.8% w/w | Free-flowing | 2.1% w/w | Free-flowing | 0.7% w/w | –
Cl.Fc1ccc([C@@H]2CCNC[C@H]2COc2ccc3c(c2)OCO3)cc1 [Amorphous paroxetine hydrochloride, (−)-trans4R-(4′-fluorophenyl)-3S-[(3′4′-methylenedioxy-phenoxy)methyl]-piperidine] | – | – | – | – | – | – | undesirably hygroscopic
Cl.Fc1ccc([C@@H]2CCNC[C@H]2COc2ccc3c(c2)OCO3)cc1 [lot #W951026, (−)-trans4R-(4′-fluorophenyl)-3S-[(3′4′-methylenedioxy-phenoxy)methyl]-piperidine] | Free-flowing | 2.1% w/w | Free-flowing | 2.2% w/w | Free-flowing | 0.8% w/w | –
